Where two headings read alike, the source gives them in different places.
Assays:
Type in all cases: biochemical
[1] = biological target: B-Raf (V600E) (Homo sapiens (Human), UniProt P15056, V600E); assay: Raf IC50 assay, TR-FRET, B-Raf (V600E); details: 0.1 mM ATP; read-out: IC50 BRAF-V600E
[2] = biological target: C-Raf (Y340D/Y341D) (Homo sapiens (Human), UniProt P04049, Y340D/Y341D); assay: Raf IC50 assay, TR-FRET, C-Raf (Y340D/Y341D); details: 0.1 mM ATP
Experimental: Compounds disclosed herein were tested against B-Raf (V600E) (PV3849, from Invitrogen) or C-Raf (Y340D/Y341D) (PV3805, from Invitrogen) in a time-resolved fluorescence energy transfer assay. The assay was carried out in reactions (10 μL) containing 0.0625 nM B-Raf or 0.5 nM C-Raf, 25 mM Tris pH7.4, 10 mM MgCl2, 0.5 mM EGTA, 0.5 mM Na3VO4, 5 mM beta-glycerophosphate, 0.01% Triton X-100, 2.5 mM DTT, 0.1% BSA, 0.1 mM ATP, 13.7 nM GST-tagged MEK1 (Full-length protein with K97R mutation, recombinant protein purified from bacterial expression system) and 0-5 μM compounds disclosed herein (final concentration of 1% DMSO). The enzyme was incubated with the compounds disclosed herein at room temperature for 60 minutes and the reactions were initiated by the addition of ATP and GST-MEK1. After reaction at room temperature for 60 minutes, an equal volume of stop/detection solution was added according to the manufacture's instruction (CisBio Bioassays). The stop/detection solution contained Eu^3+ cryptate-conjugated anti-phospho MEK1/2 (Ser217/221) rabbit polyclonal antibody and d2-conjugated anti-GST mouse monoclonal antibody in buffer containing 25 mM Tris pH7.4, 400 mM KF, 50 mM EDTA, 0.01% BSA and 0.01% Triton X-100. Plates were sealed and incubated at room temperature for 2 hours, and the TR-FRET signals (ratio of fluorescence emission at 665 nm over emission at 620 nm with excitation at 337 nm wavelength) were recorded on a PHERAstar FS plate reader (BMG Labtech). Phosphorylation of MEK1 led to the binding of anti-phospho-MEK1/2 antibody to GST-MEK1 protein that place fluorescent donor (Eu^3+ crypate) in close proximity to the accepter d2 on the anti-GST antibody, thus resulting in a high degree of fluorescence resonance energy transfer from the donor fluorophore (at 620 nm) to the acceptor fluorophore (at 665 nm). […] The IC50 for each compound was derived from fitting the dose-response % inhibition data to the four-parameter logistic model by Graphpad Prism software.

[3] = biological target: wild type B-Raf (Homo sapiens (Human), UniProt P15056); assay: WT BRaf IC50 assay, TR-FRET
wild type B-Raf, sequence (P15056 whole entry): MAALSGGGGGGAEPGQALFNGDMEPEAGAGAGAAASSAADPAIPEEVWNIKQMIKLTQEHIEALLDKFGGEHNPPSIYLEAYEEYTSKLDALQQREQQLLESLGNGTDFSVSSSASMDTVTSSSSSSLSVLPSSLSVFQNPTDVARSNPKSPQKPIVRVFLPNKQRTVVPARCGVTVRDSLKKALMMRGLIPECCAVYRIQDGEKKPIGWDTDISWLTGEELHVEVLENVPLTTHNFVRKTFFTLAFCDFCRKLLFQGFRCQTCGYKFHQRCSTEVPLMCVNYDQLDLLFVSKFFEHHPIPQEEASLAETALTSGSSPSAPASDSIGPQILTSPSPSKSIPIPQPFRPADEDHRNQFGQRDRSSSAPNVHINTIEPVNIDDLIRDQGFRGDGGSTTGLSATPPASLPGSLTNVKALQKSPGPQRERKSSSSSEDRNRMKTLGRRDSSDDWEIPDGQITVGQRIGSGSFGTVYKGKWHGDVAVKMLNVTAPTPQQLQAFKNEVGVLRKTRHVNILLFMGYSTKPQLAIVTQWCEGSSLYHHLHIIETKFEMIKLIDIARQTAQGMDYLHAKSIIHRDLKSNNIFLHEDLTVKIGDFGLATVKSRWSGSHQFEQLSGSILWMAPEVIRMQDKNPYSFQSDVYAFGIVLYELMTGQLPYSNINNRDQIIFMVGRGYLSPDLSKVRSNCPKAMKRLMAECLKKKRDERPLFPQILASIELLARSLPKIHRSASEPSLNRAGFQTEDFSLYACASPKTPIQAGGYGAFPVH
Experimental: WT BRaf IC50 Assay Protocol
Compounds disclosed herein were tested against wild type B-Raf (PV3848, from Invitrogen) in a time-resolved fluorescence energy transfer assay. […] The enzyme was incubated with the compounds disclosed herein at room temperature for 120 minutes and the reactions were initiated by the addition of ATP and GST-MEK1. After incubating at room temperature for 60 minutes, an equal volume of stop buffer containing 25 mM Tris pH7.4, 400 mM KF, 50 mM EDTA, 0.1% BSA, 0.01% Triton X-100, 1 test of Eu3+Cryptate-conjugated rabbit polyclonal antibody anti-Phospho MEK1/2 (Ser217/221) and 1 test of d2-conjugated mouse monoclonal antibody anti-glutathione S-transferase was added to stop the reactions. Plates were sealed and incubated at room temperature for 1.5 hours, and then the TR-FRET signals were read on BMG PHERAstar FS instrument. The IC50 for each compound was calculated by non linear regression by Graphpad Prism software.

[4] = biological target: WT EGFR kinase domain (Homo sapiens (Human), UniProt P00533); assay: EGFR enzymatic assay, TR-FRET, WT EGFR
WT EGFR kinase domain, sequence (P00533 669-1210): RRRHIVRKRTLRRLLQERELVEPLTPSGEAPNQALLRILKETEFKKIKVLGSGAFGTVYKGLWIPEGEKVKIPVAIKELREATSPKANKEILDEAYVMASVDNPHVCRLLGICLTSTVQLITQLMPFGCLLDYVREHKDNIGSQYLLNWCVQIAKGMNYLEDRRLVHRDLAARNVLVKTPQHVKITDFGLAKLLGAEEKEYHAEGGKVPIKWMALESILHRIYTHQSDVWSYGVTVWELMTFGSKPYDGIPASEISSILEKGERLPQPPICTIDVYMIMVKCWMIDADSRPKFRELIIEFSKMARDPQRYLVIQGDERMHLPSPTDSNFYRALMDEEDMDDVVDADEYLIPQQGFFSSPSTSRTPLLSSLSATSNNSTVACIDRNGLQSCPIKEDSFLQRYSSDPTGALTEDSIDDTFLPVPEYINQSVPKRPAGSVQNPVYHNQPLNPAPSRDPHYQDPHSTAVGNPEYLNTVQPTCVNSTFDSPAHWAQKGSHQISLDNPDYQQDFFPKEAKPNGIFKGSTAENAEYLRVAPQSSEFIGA

[5] = biological target: EGFR L858R kinase domain (Homo sapiens (Human), UniProt P00533, L858R); assay: EGFR enzymatic assay, TR-FRET, EGFR L858R
EGFR L858R kinase domain, sequence (P00533 669-1210 L858R): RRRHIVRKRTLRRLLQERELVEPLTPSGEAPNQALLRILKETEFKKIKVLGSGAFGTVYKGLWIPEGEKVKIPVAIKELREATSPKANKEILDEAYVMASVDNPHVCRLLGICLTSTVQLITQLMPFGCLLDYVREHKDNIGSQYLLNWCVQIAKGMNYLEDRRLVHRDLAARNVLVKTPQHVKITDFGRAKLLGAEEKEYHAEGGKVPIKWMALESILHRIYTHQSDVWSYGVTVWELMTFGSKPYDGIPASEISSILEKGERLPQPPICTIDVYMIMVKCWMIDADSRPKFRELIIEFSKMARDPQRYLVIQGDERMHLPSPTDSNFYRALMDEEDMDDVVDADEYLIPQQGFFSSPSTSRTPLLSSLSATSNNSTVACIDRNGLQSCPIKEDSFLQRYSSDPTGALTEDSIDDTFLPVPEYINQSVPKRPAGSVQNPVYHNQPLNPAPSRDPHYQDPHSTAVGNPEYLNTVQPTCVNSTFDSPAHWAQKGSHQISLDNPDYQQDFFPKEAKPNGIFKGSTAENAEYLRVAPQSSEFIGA

[6] = biological target: EGFR T790M/L858R kinase domain (Homo sapiens (Human), UniProt P00533, L858R/T790M); assay: EGFR enzymatic assay, TR-FRET, EGFR T790M/L858R
EGFR T790M/L858R kinase domain, sequence (P00533 669-1210 T790M/L858R): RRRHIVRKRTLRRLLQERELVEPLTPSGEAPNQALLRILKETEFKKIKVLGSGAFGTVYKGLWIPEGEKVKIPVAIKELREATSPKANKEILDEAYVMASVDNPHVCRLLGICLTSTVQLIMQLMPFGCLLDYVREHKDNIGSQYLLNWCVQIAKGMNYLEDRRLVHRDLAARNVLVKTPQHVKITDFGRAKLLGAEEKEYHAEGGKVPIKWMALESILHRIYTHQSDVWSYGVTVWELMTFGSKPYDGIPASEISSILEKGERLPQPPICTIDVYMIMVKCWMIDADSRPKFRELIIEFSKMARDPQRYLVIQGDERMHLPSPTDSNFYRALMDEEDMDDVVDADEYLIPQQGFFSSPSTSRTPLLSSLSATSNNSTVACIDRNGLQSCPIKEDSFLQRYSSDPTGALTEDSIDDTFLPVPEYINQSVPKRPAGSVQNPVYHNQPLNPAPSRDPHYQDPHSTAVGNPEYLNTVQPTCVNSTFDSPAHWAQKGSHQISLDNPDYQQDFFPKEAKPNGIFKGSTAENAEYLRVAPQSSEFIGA

[7] = Km ATP ([…] ATP), read-out: IC50 Braf-WT Km ATP

B-Raf (V600E), sequence (P15056 whole entry V600E): as the sequence (P15056 whole entry) above, with V600E counted along it
C-Raf (Y340D/Y341D), sequence (P04049 whole entry Y340D/Y341D): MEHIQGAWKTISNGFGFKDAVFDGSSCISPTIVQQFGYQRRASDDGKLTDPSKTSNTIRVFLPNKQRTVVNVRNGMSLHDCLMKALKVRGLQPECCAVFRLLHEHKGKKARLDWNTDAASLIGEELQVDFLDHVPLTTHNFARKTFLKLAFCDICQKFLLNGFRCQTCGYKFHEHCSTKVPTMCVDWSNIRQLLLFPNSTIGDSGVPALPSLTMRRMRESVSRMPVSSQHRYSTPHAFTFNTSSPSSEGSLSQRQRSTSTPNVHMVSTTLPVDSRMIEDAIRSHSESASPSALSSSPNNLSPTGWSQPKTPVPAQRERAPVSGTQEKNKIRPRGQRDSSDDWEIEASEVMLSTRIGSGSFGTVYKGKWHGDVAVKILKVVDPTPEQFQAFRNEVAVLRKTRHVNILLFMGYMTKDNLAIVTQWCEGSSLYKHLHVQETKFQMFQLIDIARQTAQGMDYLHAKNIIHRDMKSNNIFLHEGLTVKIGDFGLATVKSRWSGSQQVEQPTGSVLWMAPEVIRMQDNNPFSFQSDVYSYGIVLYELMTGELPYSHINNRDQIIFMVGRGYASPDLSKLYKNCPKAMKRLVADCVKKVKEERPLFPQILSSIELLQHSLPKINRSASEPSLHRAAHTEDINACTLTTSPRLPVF

| SMILES | IC50 [1] [nM] | IC50 [2] [nM] | IC50 [3, 7] [nM] | IC50 [4] [nM] | IC50 [5] [nM] | IC50 [6] [nM] | IC50 ([3]; IC50 Braf-WT […] ATP, […] ATP) [nM] |
| --- | --- | --- | --- | --- | --- | --- | --- |
| CN(C)Cc1ccc(C(=O)N[C@@H]2[C@H]3Oc4ccc(Oc5ccnc6c5CCC(=O)N6)cc4[C@@H]23)cc1C(F)(F)F [Compound 1.24] | 14 | 1.4 | 34 | 2.7 | 1.2 | 8.1 | – |
| O=C1CCc2c(Oc3ccc4c(c3)[C@H]3[C@H](NC(=O)c5ccc(CN6CCNCC6)c(C(F)(F)F)c5)[C@H]3O4)ccnc2N1 [Compound 1.27, N-((1S,1aS,6bS)-5-((7-oxo-5,6,7,8-tetrahydro-1,8-naphthyridin-4-yl)oxy)-1a,6b-dihydro-1H-cyclopropa[b]benzofuran-1-yl)-4-(piperazin-1-ylmethyl)-3-(trifluoromethyl)benzamide] | 27.2 | 3 | 63 | 1.3 | 0.31 | 0.54 | 120 |
| CCN1CCN(Cc2cc(C(=O)N[C@@H]3[C@H]4Oc5ccc(Oc6ccnc7c6CCC(=O)N7)cc5[C@@H]34)cc(C(F)(F)F)c2)CC1 [Compound 1.5] | 12 | 2.1 | 15 | 2.3 | 1 | 7.1 | 39 |
| CN(C)[C@@H]1CCCN(Cc2ccc(C(=O)N[C@@H]3[C@H]4Oc5ccc(Oc6ccnc7c6CCC(=O)N7)cc5[C@@H]34)cc2C(F)(F)F)C1 [Compound 1.31, 4-(((R)-3-(dimethylamino)piperidin-1-yl)methyl)-N-((1S,1aS,6bS)-5-((7-oxo-5,6,7,8-tetrahydro-1,8-naphthyridin-4-yl)oxy)-1a,6b-dihydro-1H-cyclopropa[b]benzofuran-1-yl)-3-(trifluoromethyl)benzamide] | 15 | 0.78 | 10 | 0.99 | 0.44 | 1.9 | – |
| O=C1CCc2c(Oc3ccc4c(c3)[C@H]3[C@H](NC(=O)c5ccc(CN6CCN7CCC[C@@H]7C6)c(C(F)(F)F)c5)[C@H]3O4)ccnc2N1 [Compound 1.12] | 9 | 1.3 | 9.4 | 0.67 | 0.16 | 0.21 | 33 |
| O=C1CCc2c(Oc3ccc4c(c3)[C@H]3[C@H](NC(=O)c5ccc(CN6CCCCC6)c(C(F)(F)F)c5)[C@H]3O4)ccnc2N1 [Compound 1.8] | 41 | 18 | 96 | 70 | 100 | 504 | 380 |
| CCN1CCN(Cc2ccc(C(=O)N[C@@H]3[C@H]4Oc5ccc(Oc6ccnc7c6CCC(=O)N7)cc5[C@@H]34)cc2F)CC1 [Compound 1.4] | 8.1 | 1.5 | 7.9 | 1.4 | 0.46 | 2.3 | 31 |
| CN(C)[C@H]1CCCN(Cc2ccc(C(=O)N[C@@H]3[C@H]4Oc5ccc(Oc6ccnc7c6CCC(=O)N7)cc5[C@@H]34)cc2C(F)(F)F)C1 [Compound 1.32] | 13 | 2.5 | 21 | 1.5 | 0.47 | 1.3 | – |

Second part, the compound after the results:

| IC50 [1] [nM] | IC50 [2] [nM] | IC50 [3, 7] [nM] | IC50 [4] [nM] | IC50 [5] [nM] | IC50 [6] [nM] | IC50 ([3]; IC50 Braf-WT […] ATP, […] ATP) [nM] | SMILES |
| --- | --- | --- | --- | --- | --- | --- | --- |
| 0.76 | 0.15 | 0.9 | 75 | 30 | 692 | – | O=C1CCc2c(Oc3ccc4c(c3)[C@H]3[C@H](NC(=O)c5cccc(F)c5)[C@H]3O4)ccnc2N1 [Compound 1.39] |
| 16 | 0.47 | 35 | 774 | 146 | 293 | – | CCN1CCN(Cc2ccc(C(=O)N[C@H]3[C@@H]4Oc5ccc(Oc6ccnc7c6CCC(=O)N7)cc5[C@H]34)cc2C(F)(F)F)CC1 [Compound 1.33, 4-((4-ethylpiperazin-1-yl)methyl)-N-((1R,1aR,6bR)-5-((7-oxo-5,6,7,8-tetrahydro-1,8-naphthyridin-4-yl)oxy)-1a,6b-dihydro-1H-cyclopropa [b]benzofuran-1-yl)-3-(trifluoromethyl)benzamide] |
| 54 | 12 | 52 | 7.1 | 4.7 | 22 | – | CCN1CCN(Cc2ccc(C(=O)N[C@@H]3[C@H]4Oc5ccc(Oc6ccnc(C(=O)NC)c6)cc5[C@@H]34)cc2C(F)(F)F)CC1 [Compound 2.3, 4-(((1S,1aS,6bS)-1-(4-((4-ethylpiperazin-1-yl)methyl)-3-(trifluoromethyl)benzamido)-1a,6b-dihydro-1H-cyclopropa[b]benzofuran-5-yl)oxy)-N-methylpicolinamide] |
| 8.1 | 0.64 | 5.7 | 13 | 12 | 84 | – | O=C1CCc2c(Oc3ccc4c(c3)[C@H]3[C@H](NC(=O)c5ccc(C(F)(F)F)cc5)[C@H]3O4)ccnc2N1 [Compound 1.40] |
| 16 | 2.3 | 15 | 1.8 | 0.38 | 0.25 | – | CCN1CCN(Cc2ccc(C(=O)N[C@@H]3[C@H]4Oc5ccc(Oc6ccnc7c6COC(=O)N7)cc5[C@@H]34)cc2C(F)(F)F)CC1 [Compound 2.1, 4-((4-ethylpiperazin-1-yl)methyl)-N-((1S,1aS,6bS)-5-((2-oxo-2,4-dihydro-1H-pyrido[2,3-d][1,3]oxazin-5-yl)oxy)-1a,6b-dihydro-1H-cyclopropa[b]benzofuran-1-yl)-3-(trifluoromethyl)benzamide] |
| 1.2 | 0.33 | 4.4 | 18 | 9.7 | 47 | 12 | O=C1CCc2c(Oc3ccc4c(c3)[C@H]3[C@H](NC(=O)c5cccc(C(F)(F)F)c5)[C@H]3O4)ccnc2N1 [Compound 1.35] |
